Experiments:
[1] = system: miR-193a-3p (RNA, miRNA) AACUGGCCUACAAAGUCCCAGU; assay: ITC; details: 190 mM NaCl; 20 mM HEPES pH 7.2, 1 mM EDTA, 37.5 µg/ml BSA, 0.02% Tween-20; apparent
[2] = system: biotinylated miR-193a-3p (RNA, miRNA) AACUGGCCUACAAAGUCCCAGU; assay: SPR (OpenSPR); details: 190 mM NaCl; 10 mM HEPES, 1 mM EDTA, 0.02% Tween-20; Trp 2, 20, 200 µM
[3] = system: mutated miR-193a-3p (miR-193a-mut) (RNA, miRNA) AACUUCCUACAAAGUCCCAGU; assay: CD spectra; details: 190 mM NaCl; 20 mM HEPES pH 7.2, 1 mM EDTA, BSA, Tween-20; 200 µM Trp
[4] = system: miR-193a-5p (RNA, miRNA) UGGGUCUUUGCGGGCAAGAUGA; assay: CD spectra; details: 190 mM NaCl; 20 mM HEPES pH 7.2, 1 mM EDTA, BSA, Tween-20; 200 µM Trp
[5] = system: miR-193a-3p (RNA, miRNA) AACUGGCCUACAAAGUCCCAGU; assay: CD spectra; details: 190 mM NaCl; 20 mM HEPES pH 7.2, 1 mM EDTA, BSA, Tween-20; 100 nM RNA, 200 µM Trp
[6] = system: mutated miR-193a-3p (miR-193a-mut) (RNA, miRNA) AACUUCCUACAAAGUCCCAGU; assay: ITC; details: 190 mM NaCl; 20 mM HEPES pH 7.2, 1 mM EDTA, BSA, Tween-20; 200 µM Trp titrant

N[C@@H](Cc1c[nH]c2ccccc12)C(=O)O
Kd [1]: 5.3 µM
binding [2]: yes
binding [3]: no
binding [4]: no
binding [5]: yes
binding [6]: no
